Patent US20230248025A1 (priority 2020, published 2023)
Values joined by “and” are separate entries in the source; they are usually repeats but may differ in a detail not shown here. Equal values may be shown once.

What was measured:
[1] = Color and stability study in emulsified cooked sausage (visual, L*a*b*, hue angle, delta a*, delta E); type: physicochemical
[2] = pH of emulsified cooked sausage modalities before and after cooking; type: physicochemical
total flora = test: Total plate count in cooked emulsified sausage during storage; type: cell-based
lactic flora = test: Lactic flora in cooked emulsified sausage during storage; type: cell-based
Listeria monocytogenes [3] = test: Challenge test Listeria in fresh ground sausage; type: cell-based
[4] = system: Clostridium botulinum (group II type B); type: cell-based
lactic acid bacteria = test: Endogenous lactic acid bacteria in cooked emulsified sausage model; type: cell-based
toxins of C. botulinum = system: toxins of C. botulinum; set-up: species or system Clostridium botulinum; conditions: in vivo
Listeria monocytogenes [5] = conditions: emulsified sausage; 4° C. then 8° C.
[6] = cooked emulsified sausage, d0 to d21
[7] = emulsified sausage, modalities 3-6 also contain 3000 ppm Natstabil M2 blend1

## O=NO [Nitrite]
[1]; 10 days at 4° C. and 11 days at 8° C.
  sausage color after 21 days of storage (visual): slightly degraded (pale orange shade)
[1]; [6]
  a* value over time: a* values more important than control, stable over time
  b* value over time: slight increase of b* value at d21
[1]; [7]
  meat color before cooking (visual): grey
  sausage color after cooking (visual): light pink
[2]
  pH after cooking d0: 6.48
  pH before cooking: 6.31
  pH d7: 6.43
  pH d14: 6.47
  pH d21: 6.47
Total flora
  total flora growth: normal growth
Lactic flora
  lactic flora growth: normal growth
Listeria monocytogenes [3]; d4
  Δ log cfu/g versus untreated control: < −0.5 log cfu/g
Listeria monocytogenes [3]; d8
  Δ log cfu/g versus untreated control: < −0.5 log cfu/g
[4]
  C. botulinum (spores + vegetative cells) D0 before cooking: 250 CFU/g and 450 CFU/g and 400 CFU/g
  C. botulinum (spores + vegetative cells) Day 30: <5 CFU/g and 5 CFU/g
  C. botulinum (spores + vegetative cells) Day 40: 5 CFU/g and <5 CFU/g
  C. botulinum (spores only) D0 after cooking: <5 CFU/g and 5 CFU/g
  C. botulinum (spores only) Day 21: <5 CFU/g
  C. botulinum (spores only) Day 30: <5 CFU/g
  C. botulinum (spores only) Day 40: <5 CFU/g
Lactic acid bacteria; 14 days at 4° C., 2 h at 20° C. and 26 days at 8° C.
  Lactic acid bacteria Day 40: <5 CFU/g
Lactic acid bacteria; inoculated sausage model
  Lactic acid bacteria D0 after cooking: <5 CFU/g
Toxins of C. botulinum
  Detection of toxins of C. botulinum, positive samples of 5, Day 21: 0/5
  Detection of toxins of C. botulinum, positive samples of 5, Day 40: 0/5
  production of C. botulinum toxin: inhibit the production of toxin
Listeria monocytogenes [5]
  Listeria growth during shelf-life: cannot limit the growth

## lactate
Total flora
  total flora growth: normal growth
Lactic flora
  lactic flora growth: normal growth
Listeria monocytogenes [3]; d8
  Δ log cfu/g versus untreated control: −0.9 log cfu/g
